Reference: ChEMBL document CHEMBL1201862, “PubChem BioAssay data set” (2004)
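96-well plates; 48 h exposure; 5 concentrations. Endpoints by linear interpolation between flanking doses. Not reached: highest tested concentration assigned. GI50: concentration for 50% inhibition of growth.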 Calls of active or inactive are those of the source. Cut-off read from the data, not from the text of the source: active = GI50 up to about 1.1 µM and inactive = higher.

Legend:
Assay in all cases: DTP human tumour cell line panel, 48 h
[1] = test system: HL-60
[2] = test system: K562
[3] = test system: KM12
[4] = test system: LOX IMVI
[5] = test system: NCI-H23
[6] = test system: NCI-H522
[7] = test system: OVCAR-3
[8] = test system: OVCAR-8
[9] = test system: RXF 393
[10] = test system: SF-295
[11] = test system: SK-MEL-5
[12] = test system: SN12C
[13] = test system: SNB-19
[14] = test system: SNB-75
[15] = test system: HOP-92
[16] = test system: SR

## Cc1c(CCl)c(=O)oc2c(C)c3occ(CCl)c(=O)c3cc12
[1]
  GI50: 4.72 µM (inactive)
[2]
  GI50: 6.43 µM (inactive)
[3]
  GI50: > 100 µM (inactive)
[4]
  GI50: 14.9 µM (inactive)
[5]
  GI50: 31.6 µM (inactive)
[6]
  GI50: 13.4 µM (inactive)
[7]
  GI50: > 100 µM (inactive)
[8]
  GI50: > 100 µM (inactive)
[9]
  GI50: 15.7 µM (inactive)
[10]
  GI50: > 100 µM (inactive)
[11]
  GI50: > 100 µM (inactive)
[12]
  GI50: 23.4 µM (inactive)
[13]
  GI50: 25.8 µM (inactive)
[14]
  GI50: 17.2 µM (inactive)

## O=C1CC23CC(=O)CC2(C1)c1ccccc1C3=O (stereo not given)
[1]
  GI50: > 100 µM (inactive)
[2]
  GI50: > 100 µM (inactive)
[3]
  GI50: > 100 µM (inactive)
[4]
  GI50: > 100 µM (inactive)
[5]
  GI50: > 100 µM (inactive)
[6]
  GI50: > 100 µM (inactive)
[7]
  GI50: > 100 µM (inactive)
[8]
  GI50: > 100 µM (inactive)
[9]
  GI50: 40.6 µM (inactive)
[10]
  GI50: > 100 µM (inactive)
[12]
  GI50: > 100 µM (inactive)
[13]
  GI50: > 100 µM (inactive)
[14]
  GI50: > 100 µM (inactive)

## COc1ccc(C2=C3c4cc(OC)c(OC)cc4CCN3C(=S)SS2)cc1OC
[1]
  GI50: 24.4 µM (inactive)
[15]
  GI50: 32.1 µM (inactive)
[2]
  GI50: 71 µM (inactive)
[3]
  GI50: 66.7 µM (inactive)
[4]
  GI50: 40.8 µM (inactive)
[5]
  GI50: 50.7 µM (inactive)
[6]
  GI50: 50.1 µM (inactive)
[7]
  GI50: > 100 µM (inactive)
[8]
  GI50: > 100 µM (inactive)
[9]
  GI50: 92.3 µM (inactive)
[10]
  GI50: > 100 µM (inactive)
[11]
  GI50: 13.3 µM (inactive)
[12]
  GI50: 64.7 µM (inactive)
[13]
  GI50: 69 µM (inactive)
[14]
  GI50: 25.1 µM (inactive)

## C=C1C[C@]23CCC4C(C)(C)C(=O)CC[C@]4(C)C2C[C@H]1C(O)C3=O (stereo not given in full)
[1]
  GI50: > 75 µM (inactive)
[2]
  GI50: > 75 µM (inactive)
[3]
  GI50: > 75 µM (inactive)
[4]
  GI50: > 75 µM (inactive)
[5]
  GI50: > 75 µM (inactive)
[6]
  GI50: > 75 µM (inactive)
[7]
  GI50: > 75 µM (inactive)
[8]
  GI50: > 75 µM (inactive)
[9]
  GI50: > 75 µM (inactive)
[10]
  GI50: > 75 µM (inactive)
[11]
  GI50: > 75 µM (inactive)
[12]
  GI50: > 75 µM (inactive)
[13]
  GI50: > 75 µM (inactive)
[14]
  GI50: > 75 µM (inactive)
[16]
  GI50: > 75 µM (inactive)

## CC#Cc1c(C#CC)c(OC)c2c(c1OC)C(=O)c1ccccc1C2=O
[1]
  GI50: 33 µM (inactive)
[2]
  GI50: > 100 µM (inactive)
[3]
  GI50: > 100 µM (inactive)
[4]
  GI50: > 100 µM (inactive)
[5]
  GI50: 29.8 µM (inactive)
[6]
  GI50: 3.15 µM (inactive)
[7]
  GI50: > 100 µM (inactive)
[8]
  GI50: 66.5 µM (inactive)
[9]
  GI50: 10.7 µM (inactive)
[10]
  GI50: 13.3 µM (inactive)
[11]
  GI50: 49.1 µM (inactive)
[12]
  GI50: > 100 µM (inactive)
[13]
  GI50: 20.3 µM (inactive)
[16]
  GI50: 46.6 µM (inactive)

## C=C1CC(c2ccc(O)c(OC)c2)Oc2c(OC)cccc21 (stereo not given)
[1]
  GI50: 13 µM (inactive)
[15]
  GI50: 14.4 µM (inactive)
[2]
  GI50: 19.7 µM (inactive)
[3]
  GI50: 33.7 µM (inactive)
[5]
  GI50: 32.9 µM (inactive)
[6]
  GI50: 10.7 µM (inactive)
[7]
  GI50: 33.9 µM (inactive)
[8]
  GI50: 31.1 µM (inactive)
[10]
  GI50: 80.5 µM (inactive)
[11]
  GI50: 35.7 µM (inactive)
[12]
  GI50: 34.4 µM (inactive)
[13]
  GI50: 44.9 µM (inactive)
[14]
  GI50: 39.2 µM (inactive)
[16]
  GI50: 19.7 µM (inactive)

## Cc1cc2c3ccccc3n(C)c2c2c1C(=O)c1ccccc1C2=O
[1]
  GI50: 7.82 µM (inactive)
[15]
  GI50: 13.5 µM (inactive)
[2]
  GI50: 20.4 µM (inactive)
[3]
  GI50: 28.2 µM (inactive)
[5]
  GI50: 15.6 µM (inactive)
[6]
  GI50: 16.7 µM (inactive)
[7]
  GI50: 13.4 µM (inactive)
[8]
  GI50: 19.2 µM (inactive)
[10]
  GI50: 13.6 µM (inactive)
[12]
  GI50: 19.2 µM (inactive)
[13]
  GI50: 33.5 µM (inactive)
[14]
  GI50: 29.2 µM (inactive)
[16]
  GI50: 6.24 µM (inactive)

## C/C(CN1C(=O)c2ccccc2C1=O)=N\NS(=O)(=O)c1ccc(F)cc1
[1]
  GI50: > 100 µM (inactive)
[2]
  GI50: > 100 µM (inactive)
[3]
  GI50: > 100 µM (inactive)
[4]
  GI50: > 100 µM (inactive)
[5]
  GI50: > 100 µM (inactive)
[6]
  GI50: > 100 µM (inactive)
[7]
  GI50: > 100 µM (inactive)
[8]
  GI50: > 100 µM (inactive)
[10]
  GI50: > 100 µM (inactive)
[11]
  GI50: > 100 µM (inactive)
[12]
  GI50: > 100 µM (inactive)
[13]
  GI50: > 100 µM (inactive)
[14]
  GI50: > 100 µM (inactive)
[16]
  GI50: > 100 µM (inactive)

## COC(=O)C(C(=O)C(=O)Nc1c(Cl)cc([N+](=O)[O-])cc1Cl)c1nc2cc(C)c(C)cc2nc1O (stereo not given)
[1]
  GI50: > 100 µM (inactive)
[15]
  GI50: 47.8 µM (inactive)
[2]
  GI50: > 100 µM (inactive)
[3]
  GI50: > 100 µM (inactive)
[4]
  GI50: > 100 µM (inactive)
[5]
  GI50: > 100 µM (inactive)
[6]
  GI50: > 100 µM (inactive)
[7]
  GI50: > 100 µM (inactive)
[8]
  GI50: > 100 µM (inactive)
[9]
  GI50: > 100 µM (inactive)
[10]
  GI50: > 100 µM (inactive)
[12]
  GI50: > 100 µM (inactive)
[13]
  GI50: > 100 µM (inactive)
[14]
  GI50: 86.5 µM (inactive)

## CN(C)CCn1c2ccccc2c2nc3cc4ccccc4cc3nc21
[1]
  GI50: 1.86 µM (inactive)
[2]
  GI50: 2.92 µM (inactive)
[3]
  GI50: 3.74 µM (inactive)
[4]
  GI50: 3.18 µM (inactive)
[5]
  GI50: 8.91 µM (inactive)
[6]
  GI50: 5.79 µM (inactive)
[7]
  GI50: 10.6 µM (inactive)
[8]
  GI50: 5.9 µM (inactive)
[9]
  GI50: 11 µM (inactive)
[10]
  GI50: 4.05 µM (inactive)
[11]
  GI50: 10.1 µM (inactive)
[12]
  GI50: 4.61 µM (inactive)
[13]
  GI50: 13.5 µM (inactive)

## CCN1CCC(O)(c2ccc(OC)cc2)C(C(=O)c2ccc(OC)cc2)C1 (stereo not given)
[1]
  GI50: 15.9 µM (inactive)
[2]
  GI50: 26.1 µM (inactive)
[3]
  GI50: 20.5 µM (inactive)
[4]
  GI50: 20 µM (inactive)
[5]
  GI50: 17.7 µM (inactive)
[6]
  GI50: 1.97 µM (inactive)
[7]
  GI50: 17.6 µM (inactive)
[8]
  GI50: 22.3 µM (inactive)
[10]
  GI50: > 100 µM (inactive)
[11]
  GI50: 15.3 µM (inactive)
[12]
  GI50: 20 µM (inactive)
[13]
  GI50: 28.6 µM (inactive)
[14]
  GI50: 16.4 µM (inactive)
[16]
  GI50: 22.7 µM (inactive)

## Cc1cccc(C)c1NC(=O)CCCC(=O)C1/C(=N/NC(=O)CC#N)CCC/C1=N\NC(=O)CC#N (stereo not given)
[1]
  GI50: > 100 µM (inactive)
[15]
  GI50: 48.8 µM (inactive)
[2]
  GI50: > 100 µM (inactive)
[3]
  GI50: > 100 µM (inactive)
[5]
  GI50: > 100 µM (inactive)
[6]
  GI50: > 100 µM (inactive)
[7]
  GI50: > 100 µM (inactive)
[8]
  GI50: > 100 µM (inactive)
[10]
  GI50: > 100 µM (inactive)
[11]
  GI50: > 100 µM (inactive)
[12]
  GI50: > 100 µM (inactive)
[13]
  GI50: > 100 µM (inactive)
[14]
  GI50: > 100 µM (inactive)
[16]
  GI50: > 100 µM (inactive)

## O=C(NCCCN1CCN(CCCNC(=O)c2cccc3ccccc23)CC1)c1cccc2ccccc12
[1]
  GI50: 79.6 µM (inactive)
[15]
  GI50: 0.107 µM (active)
[2]
  GI50: 41.4 µM (inactive)
[3]
  GI50: > 100 µM (inactive)
[4]
  GI50: > 100 µM (inactive)
[5]
  GI50: 57.8 µM (inactive)
[7]
  GI50: 79.3 µM (inactive)
[8]
  GI50: > 100 µM (inactive)
[10]
  GI50: 54.8 µM (inactive)
[11]
  GI50: 36.4 µM (inactive)
[12]
  GI50: > 100 µM (inactive)
[13]
  GI50: 76.7 µM (inactive)
[14]
  GI50: 20.9 µM (inactive)

## C/C=C/C=N/N(C(=O)c1cc([N+](=O)[O-])cc([N+](=O)[O-])c1)C1=NN=C(c2ccccc2)C(c2ccccc2)N1 (stereo not given)
[1]
  GI50: 18.6 µM (inactive)
[15]
  GI50: 11.1 µM (inactive)
[2]
  GI50: 52.8 µM (inactive)
[3]
  GI50: 46.2 µM (inactive)
[4]
  GI50: 78.5 µM (inactive)
[5]
  GI50: 26.9 µM (inactive)
[6]
  GI50: 21.4 µM (inactive)
[7]
  GI50: 23.4 µM (inactive)
[8]
  GI50: 89.9 µM (inactive)
[9]
  GI50: > 100 µM (inactive)
[10]
  GI50: 94.6 µM (inactive)
[11]
  GI50: 27.2 µM (inactive)
[12]
  GI50: 57.9 µM (inactive)
[13]
  GI50: > 100 µM (inactive)
[14]
  GI50: > 100 µM (inactive)
